Data on 20 compounds can be found in patent publication US10287288B2, “Factor XIa macrocyclic inhibitors bearing alkyl or cycloalkyl P2' moieties” (BRISTOL-MYERS SQUIBB COMPANY, priority 2015, dated 2019).

The Ki is the equilibrium dissociation constant of an inhibitor or competing ligand from its target. Read a low Ki as a stronger hold on the target.

For series [1] the following is noted: rcm bond.
In series [2] the target is T1, purified human Factor XIa (Homo sapiens, UniProt P03951).
T1 construct: purchased Haematologic Technologies
T1 sequence (P03951 388-625 limits assumed): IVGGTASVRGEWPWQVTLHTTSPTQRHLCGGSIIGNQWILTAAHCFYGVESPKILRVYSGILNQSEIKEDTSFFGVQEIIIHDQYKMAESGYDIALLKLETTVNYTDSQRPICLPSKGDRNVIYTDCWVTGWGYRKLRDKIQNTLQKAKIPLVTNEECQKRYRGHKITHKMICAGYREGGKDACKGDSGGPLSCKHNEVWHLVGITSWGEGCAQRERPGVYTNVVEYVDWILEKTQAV
T1 sequence (P03951 19-387 partner limits assumed): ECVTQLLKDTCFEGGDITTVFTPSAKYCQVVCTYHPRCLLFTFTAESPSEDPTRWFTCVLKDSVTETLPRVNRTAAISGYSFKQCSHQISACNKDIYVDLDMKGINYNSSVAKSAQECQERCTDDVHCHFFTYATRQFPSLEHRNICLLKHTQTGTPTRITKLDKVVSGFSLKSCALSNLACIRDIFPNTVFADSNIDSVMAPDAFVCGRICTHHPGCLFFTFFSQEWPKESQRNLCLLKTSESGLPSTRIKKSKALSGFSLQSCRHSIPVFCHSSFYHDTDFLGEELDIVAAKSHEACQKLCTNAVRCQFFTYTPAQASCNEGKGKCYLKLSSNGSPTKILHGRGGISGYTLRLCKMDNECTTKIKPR
Kind of series: Factor XIa inhibition assay (chromogenic substrate hydrolysis, Ki). Format: biochemical. To be noted: substrate S-2366, pH 7.4.

Series [3] addresses T2, purified human plasma kallikrein (Homo sapiens, UniProt P03952).
T2 construct: Plasma prekallikrein is a zymogen of a trypsin-like serine protease; purchased Enzyme Research Laboratories
Briefly: Plasma kallikrein inhibition assay (chromogenic substrate hydrolysis, Ki). The following applies: substrate S-2302, pH 7.5. Format: biochemical.

Read-outs that look alike come from different tables or passages of the source. Bounds are passed on as bounds.

T2 sequence (P03952 391-638 limits assumed): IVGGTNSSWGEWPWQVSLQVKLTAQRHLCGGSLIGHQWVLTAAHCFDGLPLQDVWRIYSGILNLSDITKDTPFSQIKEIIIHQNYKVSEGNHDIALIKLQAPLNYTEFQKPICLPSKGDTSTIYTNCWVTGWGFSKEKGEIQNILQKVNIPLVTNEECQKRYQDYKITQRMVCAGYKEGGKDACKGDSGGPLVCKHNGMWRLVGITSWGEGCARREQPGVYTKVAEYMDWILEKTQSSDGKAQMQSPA
T2 sequence (P03952 20-390 partner limits assumed): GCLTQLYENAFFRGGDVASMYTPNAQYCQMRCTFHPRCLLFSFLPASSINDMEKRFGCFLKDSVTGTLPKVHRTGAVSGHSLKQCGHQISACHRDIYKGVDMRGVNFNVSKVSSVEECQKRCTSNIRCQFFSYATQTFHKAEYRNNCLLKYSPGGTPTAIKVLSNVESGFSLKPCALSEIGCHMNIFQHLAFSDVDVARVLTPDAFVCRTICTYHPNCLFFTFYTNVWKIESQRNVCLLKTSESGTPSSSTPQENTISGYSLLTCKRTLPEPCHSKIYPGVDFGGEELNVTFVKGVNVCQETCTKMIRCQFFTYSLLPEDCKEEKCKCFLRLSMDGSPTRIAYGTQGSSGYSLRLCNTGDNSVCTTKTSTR

In turn, `CC(C)(C)OC(=O)N[C@H]1CC=CCCNC(=O)[C@@H]2C[C@@H]2c2ccnc1c2` displayed a ring closure, isolated yield in series [1] (from C=CCCNC(=O)[C@@H]1C[C@@H]1c1ccnc([C@H](CC=C)NC(=O)OC(C)(C)C)c1, 13-membered ring, Grubbs II (0.2 eq)/pTsOH, DCM, 4.7 mM, 40.0 °C, 2.0 h) of 65%. `COC(=O)[C@H]1Cc2cccc(c2)[C@@H](NC(=O)OCc2ccccc2)C/C=C/[C@@H](C)C(=O)N1`: the ring closure, isolated yield in series [1] (from C=CC[C@H](NC(=O)OCc1ccccc1)c1cccc(C[C@@H](NC(=O)[C@H](C)C=C)C(=O)OC)c1, 12-membered ring, Grubbs II (0.2 eq), microwave 45 min, DCE, 9.8 mM, 120.0 °C, 0.75 h) is 53.2%. In series [1] (from C=CC[C@H](NC(=O)OC(C)(C)C)c1cc(C(C)(C)CNC(=O)[C@H](C)C=C)ccn1, 12-membered ring, Grubbs II (0.4 eq), microwave 30 min, DCE, 49.8 mM, 120.0 °C, 0.5 h), `C[C@@H]1/C=C/C[C@H](NC(=O)OC(C)(C)C)c2cc(ccn2)C(C)(C)CNC1=O` displayed a ring closure, isolated yield of 43%. `C[C@@H]1/C=C/C[C@H](NC(=O)OCc2ccccc2)c2cccc(c2)C[C@H](CC#N)NC1=O` gave a ring closure, isolated yield in series [1] (from C=CC[C@H](NC(=O)OCc1ccccc1)c1cccc(C[C@H](CC#N)NC(=O)[C@H](C)C=C)c1, 12-membered ring, Grubbs II (0.2 eq), microwave 30 min, DCE, 8.5 mM, 120.0 °C, 0.5 h) of 56.2%. For the compound `CC(=O)N1CCCC2NC(=O)[C@H](C)CCC[C@H](n3cnc(-c4c(-n5cc(Cl)nn5)ccc(Cl)c4F)cc3=O)c3cccc(c3)C21` (single isomer, unassigned) [Example 25], in series [2], the affinity corresponds to a Ki of 1420 nM. With `CC(=O)N1CCCC2NC(=O)[C@H](C)CCC[C@H](n3cnc(-c4c(-n5cc(Cl)nn5)ccc(Cl)c4F)cc3=O)c3cccc(c3)C21` (single isomer, unassigned) [Example 26], the Ki came out at 120 nM in series [2] and 6970 nM in series [3]. The matching figures for `C[C@@H]1CCC[C@H](n2cnc(-c3cc(Cl)ccc3-n3cc(C(F)(F)F)nn3)cc2=O)c2cccc(c2)C2C(CCCN2C)NC1=O` (single isomer, unassigned) [Example 27]: under 5 nM and 409 nM. `C[C@@H]1CCC[C@H](n2cnc(-c3cc(Cl)ccc3-n3cc(C(F)(F)F)nn3)cc2=O)c2cccc(c2)C2C(CCCN2C)NC1=O` (single isomer, unassigned) [Example 28]: the Ki in series [2] was 1130 nM; in series [3], 11200 nM.

Turning to `COC(=O)[C@H]1Cc2cccc(c2)[C@@H](n2cnc(-c3cc(Cl)ccc3-n3cc(Cl)nn3)cc2=O)CCC[C@@H](C)C(=O)N1` [Example 1, methyl (3R,6R,10S)-10-{4-[5-chloro-2-(4-chloro-1H-1,2,3-triazol-1-yl)phenyl]-6-oxo-1,6-dihydropyrimidin-1-yl}-6-methyl-5-oxo-4-azabicyclo[9.3.1]pentadeca-1(15),11,13-triene-3-carboxylate], the Ki in series [2] turned out to be 53 nM. That is a double-digit nanomolar value.

For `C[C@@H]1CCC[C@H](n2cnc(-c3cc(Cl)ccc3-n3cc(C(F)(F)F)nn3)cc2=O)c2cccc(c2)C[C@H](CO)NC1=O` [Example 2, (3R,6R,10S)-10-(4-{5-chloro-2-[4-(trifluoromethyl)-1H-1,2,3-triazol-1-yl]phenyl}-6-oxo-1,6-dihydropyrimidin-1-yl)-3-(hydroxymethyl)-6-methyl-4-azabicyclo[9.3.1]pentadeca-1(15),11,13-trien-5-one], in series [2], the affinity corresponds to a Ki of 445 nM. This Ki is about 8.4-fold higher than that of the compound before.

Turning to `CNC(=O)OC[C@H]1Cc2cccc(c2)[C@@H](n2cnc(-c3cc(Cl)ccc3-n3cc(C(F)(F)F)nn3)cc2=O)CCC[C@@H](C)C(=O)N1` [Example 3, [(3R,6R,10S)-10-(4-{5-chloro-2-[4-(trifluoromethyl)-1H-1,2,3-triazol-1-yl]phenyl}-6-oxo-1,6-dihydropyrimidin-1-yl)-6-methyl-5-oxo-4-azabicyclo[9.3.1]pentadeca-1(15),11,13-trien-3-yl]methyl N-methylcarbamate], in series [2], affinity was put at a Ki of 109 nM. This Ki is about 4.1-fold lower than that of the compound before. Regarding `COC(=O)NCC[C@H]1Cc2cccc(c2)[C@@H](n2cnc(-c3cc(Cl)ccc3-n3cc(C(F)(F)F)nn3)cc2=O)CCC[C@@H](C)C(=O)N1` [Example 4, methyl N-{2-[(3R,6R,10S)-10-(4-{5-chloro-2-[4-(trifluoromethyl)-1H-1,2,3-triazol-1-yl]phenyl}-6-oxo-1,6-dihydropyrimidin-1-yl)-6-methyl-5-oxo-4-azabicyclo[9.3.1]pentadeca-1(15),11,13-trien-3-yl]ethyl}carbamate], the Ki in series [2] was 130 nM; in series [3] it was 8270 nM.

Consider `C[C@@H]1CCC[C@H](n2cnc(-c3cc(Cl)ccc3-n3cc(C(F)(F)F)nn3)cc2=O)c2cccc(c2)C[C@H](CC#N)NC1=O` [Example 5, 2-[(3R,6R,10S)-10-(4-{5-chloro-2-[4-(trifluoromethyl)-1H-1,2,3-triazol-1-yl]phenyl}-6-oxo-1,6-dihydropyrimidin-1-yl)-6-methyl-5-oxo-4-azabicyclo[9.3.1]pentadeca-1(15),11,13-trien-3-yl]acetonitrile], for which the Ki in series [2] stood at 284 nM; in series [3], 4210 nM. Turning to `Cc1c(C(=O)N[C@H]2CCC[C@@H](C)C(=O)N[C@@H](CC#N)Cc3cccc2c3)ncn1-c1cccc(Cl)c1F` [Example 6, 1-(3-chloro-2-fluorophenyl)-N-[(3R,6R,10S)-3-(cyanomethyl)-6-methyl-5-oxo-4-azabicyclo[9.3.1]pentadeca-1(15),11,13-trien-10-yl]-5-methyl-1H-imidazole-4-carboxamide], the values for the inhibition constant (Ki) in series [2] and in series [3] were 986 nM and 6200 nM, respectively. The matching figures for `COC(=O)NCC[C@@H]1Cc2cccc(c2)[C@@H](n2cnc(-c3cc(Cl)ccc3-n3cc(C(F)(F)F)nn3)cc2=O)CCC[C@@H](C)C(=O)N1` [Example 8, methyl N-{2-[(3S,6R,10S)-10-(4-{5-chloro-2-[4-(trifluoromethyl)-1H-1,2,3-triazol-1-yl]phenyl}-6-oxo-1,6-dihydropyrimidin-1-yl)-6-methyl-5-oxo-4-azabicyclo[9.3.1]pentadeca-1(15),11,13-trien-3-yl]ethyl}carbamate]: at most 5 nM and 1790 nM. Regarding `C[C@@H]1CCC[C@H](n2cnc(-c3cc(Cl)ccc3-n3cc(C(F)(F)F)nn3)cc2=O)c2cccc(c2)C[C@@H](CC#N)NC1=O` [Example 9, 2-[(3S,6R,10S)-10-(4-{5-chloro-2-[4-(trifluoromethyl)-1H-1,2,3-triazol-1-yl]phenyl}-6-oxo-1,6-dihydropyrimidin-1-yl)-6-methyl-5-oxo-4-azabicyclo[9.3.1]pentadeca-1(15),11,13-trien-3-yl]acetonitrile], the Ki worked out at 5 nM in series [2] and 1290 nM in series [3]. With `O=C1NCCCCC[C@H](n2cnc(-c3cc(Cl)ccc3-n3cc(Cl)nn3)cc2=O)c2cc(ccn2)[C@H]2C[C@@H]12` [Example 31, (2S,4R,12S)-12-{4-[5-Chloro-2-(4-chloro-1H-1,2,3-triazol-1-yl)phenyl]-6-oxo-1,6-dihydropyrimidin-1-yl}-6,14-diazatricyclo[11.3.1.0^2,^4]heptadeca-1(17),13,15-trien-5-one], the Ki is 12.7 nM in series [2] and 81.4 nM in series [3]. As to `O=C1CCCc2ccnc(c2)[C@@H](n2cnc(-c3cc(Cl)ccc3-n3cc(Cl)nn3)cc2=O)CCCCCN1` [Example 32, (12S)-12-{4-[5-Chloro-2-(4-chloro-1H-1,2,3-triazol-1-yl)phenyl]-6-oxo-1,6-dihydropyrimidin-1-yl}-6,14-diazabicyclo[11.3.1]heptadeca-1(17),13,15-trien-5-one], the results for the Ki in series [2] and in series [3] were 27.8 nM and 1890 nM, respectively. The matching figures for `O=C1NCC/C=C/C[C@H](n2cnc(-c3cc(Cl)ccc3-n3cc(Cl)nn3)cc2=O)c2cc(ccn2)[C@H]2C[C@@H]12` [Example 33, (2S,4R,9E,12S)-12-{4-[5-Chloro-2-(4-chloro-1H-1,2,3-triazol-1-yl)phenyl]-6-oxo-1,6-dihydropyrimidin-1-yl}-6,14-diazatricyclo[11.3.1.0^2,^4]heptadeca-1(17),9,13,15-tetraen-5-one]: 355 nM and 3610 nM. The corresponding values for `O=C1NCCCCC[C@H](n2cnc(-c3cc(Cl)ccc3-n3cc(Cl)nn3)cc2=O)c2cc(ccn2)[C@@H]2C[C@H]12` [Example 34, (2R,4S,12S)-12-{4-[5-Chloro-2-(4-chloro-1H-1,2,3-triazol-1-yl)phenyl]-6-oxo-1,6-dihydropyrimidin-1-yl}-6,14-diazatricyclo[11.3.1.0^2,^4]heptadeca-1(17),13,15-trien-5-one] are 96 nM and 3100 nM.
